Results from paper PMC2997884 (Molecular pharmaceutics, 2010).
Where two headings read alike, the source gives them in different places. Each block holds one compound with its values, some of them ahead of it. Where a SMILES comes first, the peptide text is derived from it. [ ]: non-standard residue; d: D form. The star is where a group is joined. ξ: configuration not given here. pNA = O=[N+]([O-])c1ccc(N*)cc1; ξP = O=C(O)C1CCCN1

Legend:
[1] = system: chymotrypsin; conditions: N-acetyltryptophanyl-X substrates of chymotrypsin; ref Bender and Kezdy[14]; cited from earlier work
[2] = biological target: T1, hVACVase (Homo sapiens, UniProt Q86WA6); conditions: cited from earlier work; for specific activity: hVACVase substrate; for Km / Vmax: hVACVase
T1 sequence (Q86WA6 38-291): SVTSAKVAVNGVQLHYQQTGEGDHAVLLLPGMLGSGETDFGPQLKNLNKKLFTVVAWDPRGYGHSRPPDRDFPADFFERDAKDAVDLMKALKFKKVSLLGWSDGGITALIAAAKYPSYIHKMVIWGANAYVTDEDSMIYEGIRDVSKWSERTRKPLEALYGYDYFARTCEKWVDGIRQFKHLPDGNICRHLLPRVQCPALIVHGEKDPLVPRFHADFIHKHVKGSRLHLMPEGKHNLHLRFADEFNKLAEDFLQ

[3] = biological target: T1, hVACVase; conditions: hVACVase-mediated hydrolysis; previously published; ref Sun et al.[12]; cited from earlier work
[4] = Hydrolysis in pH 7.4 HEPES buffer; format: physicochemical; conditions: for t1/2 (estimated half-life): pH 7.4 HEPES buffer, 37 °C, mean ± SEM, esters n=3, Val-3-APG n=1 (up to 800 h)
[5] = biological target: T1, hVACVase; test: hVACVase-mediated hydrolysis; conditions: 50 mM HEPES pH 7.4, 37°C, 6×His-tagged hVACVase for Val-3-APG; for kcat: calculated from Vmax/[enzyme]0; for Km / Vmax: mean ± SEM, Phe-OMe n=2, others n=3

Structure (SMILES): CC(=O)N[C@@H](Cc1c[nH]c2ccccc12)C(N)=O [-NH2]
Km [1]: 5000 µM | kcat [1]: 0.0006 s⁻¹

Structure (SMILES): CCOC(=O)[C@H](Cc1c[nH]c2ccccc12)NC(C)=O [-OEt]
Km [1]: 97 µM | kcat [1]: 0.448 s⁻¹

Structure (SMILES): COC(=O)[C@H](Cc1c[nH]c2ccccc12)NC(C)=O [-OMe]
Km [1]: 95 µM | kcat [1]: 0.462 s⁻¹

Structure (SMILES): CC(=O)N[C@@H](Cc1c[nH]c2ccccc12)C(=O)Oc1ccc([N+](=O)[O-])cc1 [-OPNP]
Km [1]: 2 µM | kcat [1]: 0.508 s⁻¹

Structure (SMILES): NCC(=O)N1CCCC1C(=O)Nc1ccc([N+](=O)[O-])cc1 (stereo not drawn) [Gly-Pro-p-NA] (H-Gly-[ξP]-pNA)
hydrolytic activity of hVACVase toward amides [2]: does not exhibit significant hydrolytic activity

Structure (SMILES): CC(C)C[C@H](N)C(=O)Nc1ccc([N+](=O)[O-])cc1 [Leu-p-NA]
hydrolytic activity of hVACVase toward amides [2]: does not exhibit significant hydrolytic activity

Structure (SMILES): NCCCC[C@H](N)C(=O)Nc1ccc([N+](=O)[O-])cc1 [Lys-p-NA]
hydrolytic activity of hVACVase toward amides [2]: does not exhibit significant hydrolytic activity

t1/2 (estimated half-life) [4]: 3.833 ± 0.108 h
Structure (SMILES): N=C(N)Nc1cccc(COC(=O)[C@@H](N)Cc2ccccc2)c1 [Phe-3-HPG]
Km [3]: 207 ± 16 µM | Vmax [3]: 718 ± 16 nmol/min/µg | kcat [3]: 345 ± 8 s⁻¹

kcat [5]: 395 ± 26 s⁻¹ | Km [5]: 99 ± 26 µM | Vmax [5]: 822 ± 54 nmol/min/µg | t1/2 (estimated half-life) [4]: 6.083 ± 0.157 h
Structure (SMILES): Cl.N[C@@H](Cc1ccccc1)C(=O)OCc1ccccc1 [Phe-OBn, L-phenylalanine benzyl ester hydrochloride]
specific activity [2]: 358.3 units/mg

kcat [5]: 93 ± 4 s⁻¹ | Km [5]: 6700 ± 560 µM | Vmax [5]: 193 ± 8 nmol/min/µg | t1/2 (estimated half-life) [4]: 16.773 ± 0.433 h
Structure (SMILES): CCOC(=O)[C@@H](N)Cc1ccccc1.Cl [Phe-OEt, L-phenylalanine ethyl ester hydrochloride]
specific activity [2]: 75.3 units/mg

Structure (SMILES): N[C@@H](Cc1ccccc1)C(=O)Nc1ccc([N+](=O)[O-])cc1 [Phe-p-NA]
hydrolytic activity of hVACVase toward amides [2]: does not exhibit significant hydrolytic activity

Structure (SMILES): O=C(Nc1ccc([N+](=O)[O-])cc1)[C@@H]1CCCN1 [Pro-p-NA]
hydrolytic activity of hVACVase toward amides [2]: does not exhibit significant hydrolytic activity

t1/2 (estimated half-life) [4]: 8.115 ± 0.11 h
Structure (SMILES): CC(C)C(N)C(=O)OCc1cccc(NC(=N)N)c1 (stereo not shown) [Val-3-HPG]
Km [3]: 46 ± 5 µM | Vmax [3]: 321 ± 9 nmol/min/µg | kcat [3]: 154 ± 4 s⁻¹

kcat [5]: 60 ± 3 s⁻¹ | Km [5]: 60 ± 15 µM | Vmax [5]: 125 ± 7 nmol/min/µg | t1/2 (estimated half-life) [4]: 14.3 ± 0.127 h
Structure (SMILES): CC(C)[C@H](N)C(=O)OCc1ccccc1.Cl [Val-OBn, L-valine benzyl ester hydrochloride]

Structure (SMILES): CC(C)[C@H](N)C(=O)Nc1ccc([N+](=O)[O-])cc1 [Val-p-NA]
hydrolytic activity of hVACVase toward amides [2]: does not exhibit significant hydrolytic activity

Structure (SMILES): CC(C)(C)OC(=O)[C@@H](N)Cc1ccccc1 [phenylalanine t-butyl ester]
hVACVase substrate or not [2]: not a substrate

half-life ([4]; HEPES buffer, pH 7.4): 12.37 ± 0.0917 h
Structure (SMILES): CC(C)[C@H](N)C(=O)OCCOCn1cnc2c(=O)[nH]c(N)nc21 [valacyclovir]
Km [3]: 68 ± 4 µM | Vmax [3]: 120 ± 2 nmol/min/µg | kcat [3]: 58 ± 1 s⁻¹ | Km [2]: 190 µM

Structure (SMILES): CC(C)[C@H](N)C(=O)OCC(CO)OCn1cnc2c(=O)nc(N)[nH]c21 (stereo partly shown) [valganciclovir]
Km [2]: 1900 µM

Structure (SMILES): CC(C)C(N)C(=O)OC1CC(n2cc(F)c(=O)[nH]c2=O)OC1CO (stereo not shown) [valine 3’-floxuridine ester]
Vmax [2]: 33 nmol/min/µg

Structure (SMILES): CC(C)C(N)C(=O)OCC1OC(n2cc(F)c(=O)[nH]c2=O)CC1O (stereo not shown) [valine 5’-floxuridine]
Vmax [2]: 148 nmol/min/µg

kcat [5]: 130 ± 2 s⁻¹ | Km [5]: 14 ± 1 µM | Vmax [5]: 272 ± 3 nmol/min/µg | t1/2 (estimated half-life) [4]: 6.872 ± 0.198 h
Structure (SMILES): Br.CC(C)[C@H](N)C(=O)OCc1ccc([N+](=O)[O-])cc1 [valine p-nitrobenzyl ester, L-Valine p-nitrobenzyl ester hydrobromide]
